Measurements as given in patent US3993642A, “Penicillins” (Bayer Aktiengesellschaft, priority 1973, dated 1976).

Experiments:
[1] = Solubility noted during working up; type: physicochemical
Excerpt: Yield 42% of sodium D(-) -α-[(3-oxo-4-methyl-pyrazolidin-1-yl)-carbonylamino]-benzylpenicillin.

Pseudomonas Walter = assay: MIC, test tube series dilution test; conditions: 24 hours, 37°C, liquid medium
Pseudomonas F 41 = assay: MIC, test tube series dilution test; type: cell-based; conditions: 24 hours, 37°C, liquid medium
Excerpt: |D(+) Dextrose (Merck) 10 g

Enterobacter sp. = assay: Freedom from cloudiness in Muller-Hinton broth; type: cell-based; conditions: 100 μg/ml, 24 hours
Borrelia sp. = assay: Freedom from cloudiness in Muller-Hinton broth; type: cell-based; conditions: 100 μg/ml, 24 hours
Klebsiella 63 = assay: Freedom from cloudiness in Muller-Hinton broth; type: cell-based; conditions: 100 μg/ml, 24 hours
Aeromonas hydrophila sp. = assay: Freedom from cloudiness in Muller-Hinton broth; type: cell-based; conditions: 100 μg/ml, 24 hours
Bacteroides sp. = assay: Freedom from cloudiness in Muller-Hinton broth; type: cell-based; conditions: 100 μg/ml, 24 hours
Enterococcus ATCC 9790 = assay: MIC, test-tube dilution method
Brucella sp. = type: cell-based; conditions: 100 μg/ml, 24 hours
Klebsiella pneum. = assay: MIC, test-tube dilution method
Enterococcus sp. = assay: Freedom from cloudiness in Muller-Hinton broth; type: cell-based; conditions: 100 μg/ml, 24 hours
Haemophilus influenzae = assay: Freedom from cloudiness in Muller-Hinton broth; type: cell-based; conditions: 100 μg/ml, 24 hours
[2] = tested on: Pseudomonas aeruginosa sp.; assay: Freedom from cloudiness in Muller-Hinton broth; type: cell-based; conditions: 100 μg/ml, 24 hours
Clostridium botulinium = type: cell-based; conditions: 100 μg/ml, 24 hours
[3] = tested on: Bordetella bronchiseptica; assay: Freedom from cloudiness in Muller-Hinton broth; type: cell-based; conditions: 100 μg/ml, 24 hours
[4] = tested on: Proteus, indole-negative, sp.; assay: Freedom from cloudiness in Muller-Hinton broth; type: cell-based; conditions: 100 μg/ml, 24 hours
E.coli C 165 = assay: Freedom from cloudiness in Muller-Hinton broth; type: cell-based; conditions: 100 μg/ml, 24 hours
[5] = tested on: Neisseria catarrhalis sp.; assay: Freedom from cloudiness in Muller-Hinton broth; type: cell-based; conditions: 100 μg/ml, 24 hours
Clostridium tetani = type: cell-based; conditions: 100 μg/ml, 24 hours
Klebsiella K 10 = assay: Freedom from cloudiness in Muller-Hinton broth; type: cell-based; conditions: 100 μg/ml, 24 hours
[6] = tested on: Diplococcus pneumoniae sp.; assay: Freedom from cloudiness in Muller-Hinton broth; type: cell-based; conditions: 100 μg/ml, 24 hours
Staph.aureus 133 = assay: MIC, test-tube dilution method
Lactobacillus sp. = assay: Freedom from cloudiness in Muller-Hinton broth; type: cell-based; conditions: 100 μg/ml, 24 hours
E.coli B = assay: MIC, test-tube dilution method; type: cell-based
Staphyloccus aureus = assay: Animal experiments with white mice infected intraperitoneally; type: in vivo, white mice of strain CF1; conditions: subcutaneously, 1 × (1 administration, 30 minutes after infection)
Protocol: (§1) The white mice of strain CF1 were infected intraperitoneally with the species of bacteria indicated in each case. |Animal experiments with white mice: |Determination of the ED50 after 24 hours. | Dose in units of the | penicillin compound of | Example 1 per kg, given |Germ subcutaneously |Therapy: | 1 administration: | 30 minutes after infection The ED50 is a dose at which 50% of the infected animals still survive after 24 hours.

E. coli C 165 = assay: as above; type: in vivo, white mice of strain CF1; conditions: subcutaneously, 1 × (1 administration, 30 minutes after infection)
Protocol: as §1

[7] = tested on: Corynebacterium diphteriae gravis; assay: Freedom from cloudiness in Muller-Hinton broth; type: cell-based; conditions: 100 μg/ml, 24 hours
Proteus vulgaris 1017 = assay: Freedom from cloudiness in Muller-Hinton broth; type: cell-based; conditions: 100 μg/ml, 24 hours
[8] = tested on: Staphylococcus aureus 133; assay: Freedom from cloudiness in Muller-Hinton broth; type: cell-based; conditions: 100 μg/ml, 24 hours
[9] = tested on: Proteus, indole-positive, sp.; assay: Freedom from cloudiness in Muller-Hinton broth; type: cell-based; conditions: 100 μg/ml, 24 hours
Salmonella sp. = assay: Freedom from cloudiness in Muller-Hinton broth; type: cell-based; conditions: 100 μg/ml, 24 hours
Protocol: (§2) The compounds of the invention are also active against other genera of bacteria. This is shown by the following experiment, which was carried out with the compound of Example 1.
(§3) The compound of Example 1 was diluted to 100 μg/ml with Muller-Hinton nutrient broth, with the addition of 0.1% glucose. The nutrient solution in each case contained 1 × 10^5 to 2 × 10^5 bacteria per milliliter. The test tubes containing this mixture was incubated for 24 hours in each case and the degree of cloudiness was subsequently determined.

[10] = tested on: Pasteurella psuedotuberculosis; assay: Freedom from cloudiness in Muller-Hinton broth; type: cell-based; conditions: 100 μg/ml, 24 hours
Protocol: as §2, §3

Shigella sp. = assay: Freedom from cloudiness in Muller-Hinton broth; type: cell-based; conditions: 100 μg/ml, 24 hours
Protocol: as §2, §3

E.coli 26/6 = assay: MIC, test-tube dilution method
Streptococcus pyogenes W = assay: Freedom from cloudiness in Muller-Hinton broth; type: cell-based; conditions: 100 μg/ml, 24 hours
[11] = tested on: Pseudomonas aeruginosa F 41; assay: Animal experiments with white mice infected intraperitoneally; type: in vivo, white mice of strain CF1; conditions: subcutaneously, 4 × (per administration; 30 minutes, 2, 4 and 6 hours after infection)
Protocol: as §1, with “4 administrations:” for “1 administration:”, “minutes, 2 hours, 4 hours | and 6 hours” for “minutes”

Pseudomonas aeruginosa W = assay: as above; type: in vivo, white mice of strain CF1; conditions: subcutaneously, 4 × (per administration; 30 minutes, 2, 4 and 6 hours after infection)
Protocol: as §1, with “4 administrations:” for “1 administration:”, “minutes, 2 hours, 4 hours | and 6 hours” for “minutes”

Serratia sp. = assay: Freedom from cloudiness in Muller-Hinton broth; type: cell-based; conditions: 100 μg/ml, 24 hours
E.coli 14 = assay: Freedom from cloudiness in Muller-Hinton broth; type: cell-based; conditions: 100 μg/ml, 24 hours
Proteus vulg. = assay: MIC, test-tube dilution method
Proteus morg. = assay: MIC, test-tube dilution method
[12] = tested on: Corynebacterium pyogenes M; assay: Freedom from cloudiness in Muller-Hinton broth; type: cell-based; conditions: 100 μg/ml, 24 hours

CC1CN(C(=O)N[C@@H](C(=O)N[C@@H]2C(=O)N3[C@@H]2SC(C)(C)[C@@H]3C(=O)O)c2ccccc2)NC1=O (single isomer, unassigned) [free penicillic acid, D(-)-α-[(3-oxo-4-methyl-pyrazolidin-1-yl)-carbonylamino]-benzylpenicillin]
solubility in ethyl acetate ([1]; ethyl acetate): sparingly soluble | solubility in water ([1]; water): sparingly soluble

CC1(C)S[C@@H]2[C@H](NC(=O)[C@H](NC(=O)n3cc(-c4ccccc4)c(=O)[nH]3)c3ccccc3)C(=O)N2[C@H]1C(=O)O [Example 2 C, sodium D(-)-α-[(4-phenyl-5-oxo-3-pyrazolin-2-yl)-carbonylamino]-penzylpenicillin]
MIC (Pseudomonas Walter): 4 μ/ml | MIC (Pseudomonas F 41): 4 μ/ml

Cc1cn(C(=O)N[C@@H](C(=O)N[C@@H]2C(=O)N3[C@@H]2SC(C)(C)[C@@H]3C(=O)O)C2=CCC=CC2)[nH]c1=O [Example 9, Sodium D(-)-α-[(4-methyl-5-oxo-3-pyrazolin-2-yl)-carbonylamino]-α-(cyclohexa-1,4-dien-1-yl)-methylpenicillin]
MIC (Pseudomonas Walter): 16 - 32 μ/ml | MIC (Pseudomonas F 41): 8 - 16 μ/ml

CC1(C)S[C@@H]2[C@H](NC(=O)C(C(=O)O)c3ccccc3)C(=O)N2[C@H]1C(=O)O (stereo partly drawn) [Carbenicillin, reference compound]
MIC (Pseudomonas Walter): 200 μ/ml | MIC (Pseudomonas F 41): > 200 μ/ml

Cc1cn(C(=O)N[C@@H](C(=O)N[C@@H]2C(=O)N3[C@@H]2SC(C)(C)[C@@H]3C(=O)O)c2ccc(O)cc2)[nH]c1=O [Example 8, Sodium D(-)-α-[(4-methyl-5-oxo-3-pyrazolin-2-yl)-carbonylamino]-p-hydroxybenzylpenicillin]
MIC (Pseudomonas Walter): 8 μ/ml | MIC (Pseudomonas F 41): 8 - 16 μ/ml

CC1(C)S[C@@H]2[C@H](NC(=O)[C@H](NC(=O)N3NC(=O)CC3c3ccccc3)c3ccccc3)C(=O)N2[C@H]1C(=O)O (single isomer, unassigned) [Example 14, sodium D(-)-α-[(3-oxo-5-phenyl-pyrazolidin-1-yl)-carbonylamino]-benzylpenicillin]
MIC (Pseudomonas Walter): 4 - 16 μ/ml

CC1(C)S[C@@H]2[C@H](NC(=O)[C@H](NC(=O)N3CCC(=O)N3)c3ccccc3)C(=O)N2[C@H]1C(=O)O [Example 10 C, Sodium D(-)-α-[(3-oxo-pyrazolidin-1-yl)-carbonylamino]-benzylpenicillin]
MIC (Pseudomonas Walter): 8 - 16 μ/ml

CC1(C)S[C@@H]2[C@H](NC(=O)[C@H](N)c3ccccc3)C(=O)N2[C@H]1C(=O)O [Ampicillin, α-aminobenzylpenicillin, reference compound]
MIC (Pseudomonas Walter): > 400 μ/ml | MIC (Pseudomonas F 41): > 400 μ/ml

Cc1cn(C(=O)N[C@@H](C(=O)N[C@@H]2C(=O)N3[C@@H]2SC(C)(C)[C@@H]3C(=O)O)c2ccccc2)[nH]c1=O [Example 1 B, sodium D(-)-α-[(4-methyl-5-oxo-3-pyrazolin-2-yl)-carbonylamino]-benzylpenicillin]
Freedom from cloudiness (Enterobacter sp.): free of cloudiness | Freedom from cloudiness (Borrelia sp.): free of cloudiness | Freedom from cloudiness (Klebsiella 63): free of cloudiness | Freedom from cloudiness (Aeromonas hydrophila sp.): free of cloudiness | Freedom from cloudiness (Bacteroides sp.): free of cloudiness | MIC (Enterococcus ATCC 9790): 32 U/ml | Freedom from cloudiness (Brucella sp.): free of cloudiness | MIC (Klebsiella pneum.): 128 U/ml | Freedom from cloudiness (Enterococcus sp.): free of cloudiness | Freedom from cloudiness (Haemophilus influenzae): free of cloudiness | MIC (Pseudomonas Walter): 8 μ/ml | Freedom from cloudiness [2]: free of cloudiness | MIC (Pseudomonas F 41): 8 μ/ml | Freedom from cloudiness (Clostridium botulinium): free of cloudiness | Freedom from cloudiness [3]: free of cloudiness | Freedom from cloudiness [4]: free of cloudiness | Freedom from cloudiness (E.coli C 165): free of cloudiness | Freedom from cloudiness [5]: free of cloudiness | Freedom from cloudiness (Clostridium tetani): free of cloudiness | Freedom from cloudiness (Klebsiella K 10): free of cloudiness | Freedom from cloudiness [6]: free of cloudiness | MIC (Staph.aureus 133): 0.5 U/ml | Freedom from cloudiness (Lactobacillus sp.): free of cloudiness | MIC (E.coli B): 32 U/ml | ED50 after 24 hours (Staphyloccus aureus): 40,000 units per kg | ED50 after 24 hours (E. coli C 165): 200,000 units per kg | Freedom from cloudiness [7]: free of cloudiness | Freedom from cloudiness (Proteus vulgaris 1017): free of cloudiness | Freedom from cloudiness [8]: free of cloudiness | Freedom from cloudiness [9]: free of cloudiness | Freedom from cloudiness (Salmonella sp.): free of cloudiness | Freedom from cloudiness [10]: free of cloudiness | Freedom from cloudiness (Shigella sp.): free of cloudiness | MIC (E.coli 26/6): 1 U/ml | Freedom from cloudiness (Streptococcus pyogenes W): free of cloudiness | ED50 after 24 hours [11]: 100,000 units per kg | ED50 after 24 hours (Pseudomonas aeruginosa W): 75,000 units per kg | Freedom from cloudiness (Serratia sp.): free of cloudiness | Freedom from cloudiness (E.coli 14): free of cloudiness | MIC (Proteus vulg.): 128 U/ml | MIC (Proteus morg.): 128 U/ml | Freedom from cloudiness [12]: free of cloudiness

CC1CN(C(=O)N[C@@H](C(=O)N[C@@H]2C(=O)N3[C@@H]2SC(C)(C)[C@@H]3C(=O)O)c2ccccc2)NC1=O (single isomer, unassigned) [Example 11 C, sodium D(-) -α-[(3-oxo-4-methyl-pyrazolidin-1-yl)-carbonylamino]-benzylpenicillin]
MIC (Pseudomonas Walter): 16 - 64 μ/ml
